# From ChEMBL document CHEMBL4396905, “Design, synthesis and in vitro evaluation of 6-amide-2-aryl benzoxazole/benzimidazole derivatives against tumor cells by inhibiting VEGFR-2 kinase” (Eur J Med Chem, 2019)
# Calls of active or inactive are those of the source. The rule behind the calls is not given here.
# Legend:
# [1] = test system: HepG2; assay: Induction of apoptosis in human HepG2 cells assessed as necrotic cells at 1 nM incubated for 24 hrs by dUTP-FITC/PI staining based flow cytometry (reference value: 10.2%); assay type: functional
# [2] = test system: HepG2; assay: Induction of apoptosis in human HepG2 cells assessed as apoptotic cells at 1 nM incubated for 24 hrs by dUTP-FITC/PI staining based flow cytometry (reference value: 3.3%); assay type: functional
# [3] = molecular target: Platelet-derived growth factor receptor beta (Homo sapiens) (UniProt P09619); assay: Inhibition of PDGFRbeta (unknown origin) at 1 uM
# [4] = molecular target: Epidermal growth factor receptor (Homo sapiens) (UniProt P00533); assay: Inhibition of EGFR (unknown origin) using Poly (Glu, Tyr) 4:1 as substrate at 1 uM preincubated with substrate followed by enzyme challenge for 1 hr by ELISA relative to control
# [5] = Cytotoxicity against human LO2 cells assessed as reduction in cell viability at 10 uM relative to control; assay type: cell-based, L02; conditions: read-out: INH
# [6] = test system: A549; assay: Antiproliferative activity against human A549 cells expressing EGFR assessed as reduction in cell growth incubated for 48 hrs by MTT assay; assay type: functional, cell-based; conditions: A549, 48 h
# [7] = test system: HUVEC; assay: Induction of apoptosis in human HUVEC cells assessed as necrotic cells at 1 nM incubated for 24 hrs by dUTP-FITC/PI staining based flow cytometry (reference value: 6.9%); assay type: functional
# [8] = test system: Chorioallantoic membrane; assay: Antiangiogenic activity in chicken chorioallantoic membrane assessed as reduction in number of blood vessels at 1 nM per egg measured after 48 hrs by CAM assay relative to control; assay type: functional, cell membranes; conditions: Gallus gallus
# [9] = test system: HUVEC; assay: Cell cycle arrest in human HUVEC cells assessed as accumulation at G2/M phase at 10 nM incuabted for 24 hrs by PI staining based flow cytometry (reference value: 46.4%); assay type: functional
# [10] = test system: Chorioallantoic membrane; assay: Antiangiogenic activity in chicken chorioallantoic membrane assessed as reduction in number of blood vessels at 10 nM per egg measured after 48 hrs by CAM assay relative to control; assay type: functional, cell membranes; conditions: Gallus gallus
# [11] = test system: HepG2; assay: Cell cycle arrest in human HepG2 cells assessed as accumulation at S phase at 10 nM incuabted for 24 hrs by PI staining based flow cytometry (reference value: 9.8%); assay type: functional
# [12] = test system: HUVEC; assay: Induction of apoptosis in human HUVEC cells assessed as apoptotic cells at 1 nM incubated for 24 hrs by dUTP-FITC/PI staining based flow cytometry (reference value: 4.9%); assay type: functional
# [13] = test system: HepG2; assay: Cell cycle arrest in human HepG2 cells assessed as accumulation at G0/G1 phase at 10 nM incuabted for 24 hrs by PI staining based flow cytometry (reference value: 47.9%); assay type: functional
# [14] = test system: HUVEC; assay: Cell cycle arrest in human HUVEC cells assessed as accumulation at S phase at 10 nM incuabted for 24 hrs by PI staining based flow cytometry (reference value: 10.4%); assay type: functional
# [15] = test system: HepG2; assay: Induction of apoptosis in human HepG2 cells assessed as necrotic cells at 10 nM incubated for 24 hrs by dUTP-FITC/PI staining based flow cytometry (reference value: 10.2%); assay type: functional
# [16] = test system: HepG2; assay: Induction of apoptosis in human HepG2 cells assessed as apoptotic cells at 10 nM incubated for 24 hrs by dUTP-FITC/PI staining based flow cytometry (reference value: 3.3%); assay type: functional
# [17] = molecular target: T1, Vascular endothelial growth factor receptor 2 (Homo sapiens, UniProt P35968); conditions: at 1 µM
# Description: Inhibition of VEGFR2 (unknown origin) using Poly (Glu, Tyr) 4:1 as substrate at 1 uM preincubated with substrate followed by enzyme challenge for 1 hr by ELISA relative to control
# [18] = test system: HepG2; assay: Cell cycle arrest in human HepG2 cells assessed as accumulation at G0/G1 phase at 1 nM incuabted for 24 hrs by PI staining based flow cytometry (reference value: 47.9%); assay type: functional
# [19] = molecular target: Vascular endothelial growth factor receptor 1 (Homo sapiens) (UniProt P17948); assay: Inhibition of FLT1 (unknown origin) at 1 uM
# [20] = test system: HUVEC; assay: Cell cycle arrest in human HUVEC cells assessed as accumulation at G0/G1 phase at 10 nM incuabted for 24 hrs by PI staining based flow cytometry (reference value: 43.2%); assay type: functional
# [21] = molecular target: T1, Vascular endothelial growth factor receptor 2; assay: Inhibition of VEGFR2 (unknown origin) using Poly (Glu, Tyr) 4:1 as substrate preincubated with substrate followed by enzyme challenge for 1 hr by ELISA
# [22] = test system: HepG2; assay: Cell cycle arrest in human HepG2 cells assessed as accumulation at S phase at 1 nM incuabted for 24 hrs by PI staining based flow cytometry (reference value: 9.8%); assay type: functional
# [23] = test system: HUVEC; assay: Cell cycle arrest in human HUVEC cells assessed as accumulation at G0/G1 phase at 1 nM incuabted for 24 hrs by PI staining based flow cytometry (reference value: 43.2%); assay type: functional
# [24] = test system: HepG2; assay: Cell cycle arrest in human HepG2 cells assessed as accumulation at G2/M phase at 1 nM incuabted for 24 hrs by PI staining based flow cytometry (reference value: 42.3%); assay type: functional
# [25] = test system: HUVEC; assay: Induction of apoptosis in human HUVEC cells assessed as necrotic cells at 10 nM incubated for 24 hrs by dUTP-FITC/PI staining based flow cytometry (reference value: 6.9%); assay type: functional
# [26] = molecular target: Hepatocyte growth factor receptor (Homo sapiens) (UniProt P08581); assay: Inhibition of MET (unknown origin) at 1 uM
# [27] = molecular target: Platelet-derived growth factor receptor alpha (Homo sapiens) (UniProt P16234); assay: Inhibition of PDGFRalpha (unknown origin) at 1 uM
# [28] = test system: HepG2; assay: Cell cycle arrest in human HepG2 cells assessed as accumulation at G2/M phase at 10 nM incuabted for 24 hrs by PI staining based flow cytometry (reference value: 42.3%); assay type: functional
# [29] = test system: HUVEC; assay: Induction of apoptosis in human HUVEC cells assessed as apoptotic cells at 10 nM incubated for 24 hrs by dUTP-FITC/PI staining based flow cytometry (reference value: 4.9%); assay type: functional
# [30] = test system: Chorioallantoic membrane; assay: Antiangiogenic activity in chicken chorioallantoic membrane assessed as reduction in number of blood vessels measured after 48 hrs by CAM assay; assay type: functional, cell membranes; conditions: Gallus gallus
# [31] = test system: HepG2; assay: Antiproliferative activity against human HepG2 cells expressing VEGFR2 assessed as reduction in cell growth incubated for 48 hrs by MTT assay; assay type: functional, cell-based; conditions: HepG2, 48 h
# [32] = test system: HUVEC; assay: Cell cycle arrest in human HUVEC cells assessed as accumulation at S phase at 1 nM incuabted for 24 hrs by PI staining based flow cytometry (reference value: 10.4%); assay type: functional
# [33] = test system: Chorioallantoic membrane; assay: Antiangiogenic activity in chicken chorioallantoic membrane assessed as reduction in number of blood vessels at 0.1 nM per egg measured after 48 hrs by CAM assay relative to control; assay type: functional, cell membranes; conditions: Gallus gallus
# [34] = molecular target: T1, Vascular endothelial growth factor receptor 2; assay: Inhibition of VEGFR2 in human HUVEC cells assessed as reduction in phosphorylation of VEGFR2 at 2 to 4 uM incubated for 24 hrs by Western blot analysis; assay type: cell-based
# [35] = test system: MDA-MB-231; assay: Antiproliferative activity against human MDA-MB-231 cells expressing EGFR assessed as reduction in cell growth incubated for 48 hrs by MTT assay; assay type: functional, cell-based; conditions: MDA-MB-231, 48 h
# [36] = test system: HUVEC; assay: Cell cycle arrest in human HUVEC cells assessed as accumulation at G2/M phase at 1 nM incuabted for 24 hrs by PI staining based flow cytometry (reference value: 46.4%); assay type: functional
# [37] = test system: HepG2; assay: Cell cycle arrest in human HepG2 cells assessed as accumulation at G0/G1 phase incuabted for 24 hrs by PI staining based flow cytometry; assay type: functional
# [38] = test system: HUVEC; assay: Antiproliferative activity against human HUVEC cells expressing VEGFR2 assessed as reduction in cell growth incubated for 48 hrs by MTT assay; assay type: functional, cell-based
# [39] = test system: HUVEC; assay: Cell cycle arrest in human HUVEC cells assessed as accumulation at G0/G1 phase incuabted for 24 hrs by PI staining based flow cytometry; assay type: functional
# [40] = molecular target: Vascular endothelial growth factor receptor 3 (Homo sapiens) (UniProt P35916); assay: Inhibition of FLT4 (unknown origin) 1 uM
# Chain of Epidermal growth factor receptor (Homo sapiens) (P00533 whole entry): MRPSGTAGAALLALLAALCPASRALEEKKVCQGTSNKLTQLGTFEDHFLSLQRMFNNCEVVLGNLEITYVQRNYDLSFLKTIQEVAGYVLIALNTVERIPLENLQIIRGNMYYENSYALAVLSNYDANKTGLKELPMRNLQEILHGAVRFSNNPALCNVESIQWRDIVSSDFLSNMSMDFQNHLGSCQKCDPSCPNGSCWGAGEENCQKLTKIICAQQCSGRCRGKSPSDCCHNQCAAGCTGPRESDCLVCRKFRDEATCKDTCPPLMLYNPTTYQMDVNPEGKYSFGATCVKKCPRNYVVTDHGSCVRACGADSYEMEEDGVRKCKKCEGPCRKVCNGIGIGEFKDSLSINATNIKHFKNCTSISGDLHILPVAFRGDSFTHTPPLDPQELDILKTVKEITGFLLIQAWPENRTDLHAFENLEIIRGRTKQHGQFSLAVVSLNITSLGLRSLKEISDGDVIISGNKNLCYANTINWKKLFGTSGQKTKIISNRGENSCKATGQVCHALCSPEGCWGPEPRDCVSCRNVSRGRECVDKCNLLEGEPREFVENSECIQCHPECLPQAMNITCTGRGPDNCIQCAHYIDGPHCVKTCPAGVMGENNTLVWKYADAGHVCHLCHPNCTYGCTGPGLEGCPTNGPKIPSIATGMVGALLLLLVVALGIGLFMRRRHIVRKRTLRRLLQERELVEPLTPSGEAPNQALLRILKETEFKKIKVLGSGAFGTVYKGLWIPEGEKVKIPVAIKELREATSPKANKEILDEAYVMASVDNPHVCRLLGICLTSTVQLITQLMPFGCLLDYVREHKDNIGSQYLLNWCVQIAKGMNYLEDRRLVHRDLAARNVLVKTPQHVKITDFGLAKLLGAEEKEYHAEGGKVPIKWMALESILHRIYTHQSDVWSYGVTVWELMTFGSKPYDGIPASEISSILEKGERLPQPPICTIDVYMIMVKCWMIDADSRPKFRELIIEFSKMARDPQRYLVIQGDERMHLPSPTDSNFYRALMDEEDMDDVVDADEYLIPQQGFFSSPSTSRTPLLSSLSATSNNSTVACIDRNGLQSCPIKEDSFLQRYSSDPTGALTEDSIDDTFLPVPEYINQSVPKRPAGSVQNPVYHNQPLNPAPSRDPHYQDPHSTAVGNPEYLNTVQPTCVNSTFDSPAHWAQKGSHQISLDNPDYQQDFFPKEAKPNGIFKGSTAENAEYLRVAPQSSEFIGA
# T1 sequence (P35968 whole entry): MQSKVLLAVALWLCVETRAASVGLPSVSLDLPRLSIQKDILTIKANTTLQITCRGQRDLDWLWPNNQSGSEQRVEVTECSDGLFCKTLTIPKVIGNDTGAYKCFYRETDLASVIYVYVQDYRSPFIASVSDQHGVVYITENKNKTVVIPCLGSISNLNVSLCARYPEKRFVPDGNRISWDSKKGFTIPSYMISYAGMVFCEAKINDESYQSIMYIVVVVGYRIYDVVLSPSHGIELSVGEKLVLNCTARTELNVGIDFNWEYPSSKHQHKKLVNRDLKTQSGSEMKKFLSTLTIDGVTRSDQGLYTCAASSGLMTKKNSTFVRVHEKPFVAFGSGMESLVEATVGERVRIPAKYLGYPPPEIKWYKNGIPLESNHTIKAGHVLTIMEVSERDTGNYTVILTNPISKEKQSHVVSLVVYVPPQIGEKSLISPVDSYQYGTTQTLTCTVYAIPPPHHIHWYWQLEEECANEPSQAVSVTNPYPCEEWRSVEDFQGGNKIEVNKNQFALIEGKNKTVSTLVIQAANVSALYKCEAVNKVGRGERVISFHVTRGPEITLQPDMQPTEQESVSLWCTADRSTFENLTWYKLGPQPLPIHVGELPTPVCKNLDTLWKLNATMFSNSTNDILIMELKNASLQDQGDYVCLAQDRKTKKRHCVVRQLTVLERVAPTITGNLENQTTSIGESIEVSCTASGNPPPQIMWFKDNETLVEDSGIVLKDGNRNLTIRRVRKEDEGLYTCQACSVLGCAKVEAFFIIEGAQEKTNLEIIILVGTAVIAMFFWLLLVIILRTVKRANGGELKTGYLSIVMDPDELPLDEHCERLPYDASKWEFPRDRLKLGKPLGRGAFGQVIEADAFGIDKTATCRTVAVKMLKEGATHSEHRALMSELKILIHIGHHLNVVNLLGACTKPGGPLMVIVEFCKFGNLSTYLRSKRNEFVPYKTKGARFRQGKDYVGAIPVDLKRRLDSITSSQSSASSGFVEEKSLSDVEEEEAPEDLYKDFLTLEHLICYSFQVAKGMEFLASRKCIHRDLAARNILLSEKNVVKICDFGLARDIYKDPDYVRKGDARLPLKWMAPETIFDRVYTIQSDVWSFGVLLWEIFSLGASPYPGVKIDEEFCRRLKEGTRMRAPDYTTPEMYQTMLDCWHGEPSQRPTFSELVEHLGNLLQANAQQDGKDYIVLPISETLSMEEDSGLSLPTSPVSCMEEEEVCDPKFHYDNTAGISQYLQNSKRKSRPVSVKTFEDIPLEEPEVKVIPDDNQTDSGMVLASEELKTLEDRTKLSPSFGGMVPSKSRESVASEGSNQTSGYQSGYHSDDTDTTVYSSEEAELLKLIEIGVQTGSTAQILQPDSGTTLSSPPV
# Chain of Vascular endothelial growth factor receptor 1 (Homo sapiens) (P17948 whole entry): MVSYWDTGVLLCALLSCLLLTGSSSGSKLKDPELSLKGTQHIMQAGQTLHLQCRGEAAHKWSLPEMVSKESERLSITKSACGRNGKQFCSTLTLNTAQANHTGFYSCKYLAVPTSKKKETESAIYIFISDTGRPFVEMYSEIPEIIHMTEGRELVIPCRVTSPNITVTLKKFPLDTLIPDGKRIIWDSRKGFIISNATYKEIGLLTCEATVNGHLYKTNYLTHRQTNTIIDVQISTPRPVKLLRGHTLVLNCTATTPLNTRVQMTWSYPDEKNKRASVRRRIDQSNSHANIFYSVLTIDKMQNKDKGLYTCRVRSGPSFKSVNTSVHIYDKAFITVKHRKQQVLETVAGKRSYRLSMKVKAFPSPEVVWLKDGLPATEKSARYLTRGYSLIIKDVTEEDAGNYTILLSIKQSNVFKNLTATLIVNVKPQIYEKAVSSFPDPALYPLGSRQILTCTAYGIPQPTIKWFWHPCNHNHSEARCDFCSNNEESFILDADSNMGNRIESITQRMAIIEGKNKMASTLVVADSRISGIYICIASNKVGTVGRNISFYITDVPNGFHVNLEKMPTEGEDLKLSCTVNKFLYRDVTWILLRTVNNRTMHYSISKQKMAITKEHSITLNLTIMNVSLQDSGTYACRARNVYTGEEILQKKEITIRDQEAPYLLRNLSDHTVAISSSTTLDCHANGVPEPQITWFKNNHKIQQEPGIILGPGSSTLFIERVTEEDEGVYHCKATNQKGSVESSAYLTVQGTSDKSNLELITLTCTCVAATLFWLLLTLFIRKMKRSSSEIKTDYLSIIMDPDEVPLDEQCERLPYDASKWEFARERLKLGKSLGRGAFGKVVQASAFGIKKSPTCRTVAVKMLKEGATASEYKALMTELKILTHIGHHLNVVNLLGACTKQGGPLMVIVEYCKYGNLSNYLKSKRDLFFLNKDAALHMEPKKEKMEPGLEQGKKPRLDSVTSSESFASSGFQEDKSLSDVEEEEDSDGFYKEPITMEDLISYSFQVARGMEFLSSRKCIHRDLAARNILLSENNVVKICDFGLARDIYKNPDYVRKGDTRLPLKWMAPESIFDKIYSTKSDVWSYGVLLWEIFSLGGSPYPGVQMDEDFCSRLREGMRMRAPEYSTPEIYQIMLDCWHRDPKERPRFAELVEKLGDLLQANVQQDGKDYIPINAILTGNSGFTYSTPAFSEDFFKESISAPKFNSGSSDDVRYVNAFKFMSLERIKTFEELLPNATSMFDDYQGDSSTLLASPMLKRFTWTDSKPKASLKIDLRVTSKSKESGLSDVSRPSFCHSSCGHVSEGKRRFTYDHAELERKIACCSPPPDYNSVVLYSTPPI
# Chain of Platelet-derived growth factor receptor beta (Homo sapiens) (P09619 whole entry): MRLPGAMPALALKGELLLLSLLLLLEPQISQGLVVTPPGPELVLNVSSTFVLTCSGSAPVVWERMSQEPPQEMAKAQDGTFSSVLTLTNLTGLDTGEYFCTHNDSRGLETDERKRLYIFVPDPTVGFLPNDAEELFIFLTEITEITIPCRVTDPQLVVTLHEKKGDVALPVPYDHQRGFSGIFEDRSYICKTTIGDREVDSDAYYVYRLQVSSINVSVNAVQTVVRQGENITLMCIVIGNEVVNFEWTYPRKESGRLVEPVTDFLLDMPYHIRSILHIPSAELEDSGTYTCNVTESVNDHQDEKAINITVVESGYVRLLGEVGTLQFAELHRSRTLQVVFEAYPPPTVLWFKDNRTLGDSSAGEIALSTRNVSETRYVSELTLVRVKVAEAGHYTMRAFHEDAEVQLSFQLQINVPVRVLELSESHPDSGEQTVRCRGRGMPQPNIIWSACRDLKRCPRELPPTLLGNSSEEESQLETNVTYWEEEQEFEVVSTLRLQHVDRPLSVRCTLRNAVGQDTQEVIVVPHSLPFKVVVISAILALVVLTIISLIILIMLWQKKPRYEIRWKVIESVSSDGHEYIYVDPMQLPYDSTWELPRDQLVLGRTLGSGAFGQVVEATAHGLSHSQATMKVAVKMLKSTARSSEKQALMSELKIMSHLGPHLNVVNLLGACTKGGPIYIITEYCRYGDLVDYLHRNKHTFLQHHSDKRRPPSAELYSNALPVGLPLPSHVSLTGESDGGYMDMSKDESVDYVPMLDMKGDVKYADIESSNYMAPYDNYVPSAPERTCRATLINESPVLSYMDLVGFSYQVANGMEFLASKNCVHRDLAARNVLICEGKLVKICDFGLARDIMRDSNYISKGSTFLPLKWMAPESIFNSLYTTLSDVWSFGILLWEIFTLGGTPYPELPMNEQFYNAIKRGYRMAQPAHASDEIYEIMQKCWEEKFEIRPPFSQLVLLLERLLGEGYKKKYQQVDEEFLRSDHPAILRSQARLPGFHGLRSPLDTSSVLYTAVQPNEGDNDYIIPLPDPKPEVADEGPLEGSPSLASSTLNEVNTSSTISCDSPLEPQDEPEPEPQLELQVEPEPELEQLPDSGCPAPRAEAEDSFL
smiles,measurement,setting,value
COc1ccc(CC(=O)Nc2ccc3[nH]c(-c4ccc(Cl)cc4)nc3c2)cc1,Activity,[1],7.3%
same,Activity,[2],13.7%
same,inhibition,[3],2.7%
same,inhibition,[4],58.3%
same,cytotoxicity at 10 µM,[5],56.4%
same,IC50,[6],73.8 µM
same,Activity,[7],6.9%
same,inhibition,[8],51%
same,Activity,[9],21.3%
same,inhibition,[10],79%
same,Activity,[11],6.7%
same,Activity,[12],18.9%
same,Activity,[13],68%
same,Activity,[14],7.3%
same,Activity,[15],5.9%
same,Activity,[16],28.1%
same,inhibition,[17],103%
same,Activity,[18],55.7%
same,inhibition,[19],26.1%
same,Activity,[20],71.4%
same,IC50,[21],0.0514 µM
same,Activity,[22],8.1%
same,Activity,[23],59.3%
same,Activity,[24],36.2%
same,Activity,[25],2.5%
same,inhibition,[26],-3.6%
same,inhibition,[27],-3.5%
same,Activity,[28],25.3%
same,Activity,[29],34.3%
same,inhibition,[30],Dose-dependent effect
same,IC50,[31],2.57 µM
same,Activity,[32],8.9%
same,inhibition,[33],28%
same,inhibition,[34],Active
same,IC50,[35],57.3 µM
same,Activity,[36],31.8%
same,Activity,[37],Dose-dependent effect
same,IC50,[38],1.47 µM
same,Activity,[39],Dose-dependent effect
same,inhibition,[40],18.5%
COc1ccc(CC(=O)Nc2ccc3oc(-c4ccc(Cl)cc4)nc3c2)cc1,inhibition,[4],49.4%
same,IC50,[6],74.4 µM
same,inhibition,[17],102%
same,IC50,[21],0.0973 µM
same,IC50,[31],8.22 µM
same,IC50,[35],74.3 µM
same,IC50,[38],5.25 µM
Cc1ccc(CC(=O)Nc2ccc3oc(-c4ccccc4Cl)nc3c2)cc1,inhibition,[4],47.5%
same,IC50,[6],64.4 µM
same,inhibition,[17],93.5%
same,IC50,[21],0.489 µM
same,IC50,[31],36.3 µM
same,IC50,[35],47.7 µM
same,IC50,[38],16.3 µM
COc1cc(CC(=O)Nc2ccc3[nH]c(-c4ccc(Cl)cc4)nc3c2)cc(OC)c1OC,inhibition,[4],43.1%
same,IC50,[6],36.8 µM
same,inhibition,[17],90.2%
same,IC50,[21],0.419 µM
same,IC50,[31],3.43 µM
same,IC50,[35],75.9 µM
same,IC50,[38],7.32 µM
COc1ccc(CC(=O)Nc2ccc3oc(-c4ccccc4F)nc3c2)cc1,inhibition,[4],42.8%
same,IC50,[6],> 100 µM
same,inhibition,[17],94.6%
same,IC50,[21],0.166 µM
same,IC50,[31],37.3 µM
same,IC50,[35],> 100 µM
same,IC50,[38],14.2 µM
Cc1ccc(CC(=O)Nc2ccc3[nH]c(-c4ccc(Cl)cc4)nc3c2)cc1,inhibition,[4],48.3%
same,IC50,[6],59.6 µM
same,inhibition,[17],100%
same,IC50,[21],0.0737 µM
same,IC50,[31],5.56 µM
same,IC50,[35],63.2 µM
same,IC50,[38],3.21 µM
